molecular target: T1, S1P5 receptors (Homo sapiens, UniProt Q9H228); assay: [35S]-GTPγS binding assay on CHO-S1P5 membranes (S1P5 agonism); type: biochemical; details: membranes of CHO cells expressing recombinant S1P5; measure of S1P5 agonism
T1 construct: expressed in transfected cells; host or cells: CHO cells (membranes)
Description: CHO cells expressing recombinant S1P5 receptors were cultured in 500 cm^2 culture trays and, once confluent, rinsed and detached with cell-lifting buffer (10 mM HEPES, 154 mM NaCl, 6.85 mM EDTA, pH 7.4). Cells were then pelleted by centrifugation, resuspended, and homogenized in membrane preparation buffer (10 mM HEPES and 10 mM EDTA, pH 7.4) using a Polytron PT 1200E homogenizer (Kinematica, Luzern, Switzerland). Cellular proteins were pelleted by centrifugation at 48,000×g at 4° C. for 30 minutes. The resulting supernatant was discarded, and the pellet was re-suspended again in membrane preparation buffer, homogenized for a second time, and then centrifuged again as described above. The final cellular protein pellet was suspended in ice cold resuspension buffer (10 mM HEPES and 0.1 mM EDTA, pH 7.4), divided into aliquots, and stored at −80° C. until use.
Functional binding assays for [^35S]-GTPγS were performed in 96-well non-binding surface plates with a final volume of 200 μL. The test compounds were serially diluted in DMSO and added to assay plates using a Tecan D300E digital printer with a total volume of 0.4 μL. The control sphingosine-1-phosphate (SIP) was prepared separately by preparing a 400 µM stock solution from a 100 nmol pellet of S1P in 10 mM Na2CO3 with 2% β-cyclodextrin. The serial dilution of S1P was done using complete assay buffer (20 mM HEPES, 10 mM MgCl2, 100 mM NaCl, 1 mM EDTA, 0.1% fatty acid free bovine serum albumin (BSA), and 30 μg/mL saponin, pH 7.4) and transferred to wells already containing 0.4 μL DMSO. All the wells were then loaded to a total volume of 40 μL of complete assay buffer, except the non-specific binding (NSB) wells. For NSB wells, 40 μL/well of 50 μM GTPγS (Sigma Aldrich, cat #G8634, St. Louis, MO) was added to wells containing 0.4 μL of DMSO. The assay was started by the addition of 120 μL/well of CHO-SIP receptor membrane solution containing 40 μg/mL of membrane protein, 16.67 μM guanosine diphosphate (GDP; Sigma Aldrich, cat #G7127, St. Louis, MO), and 2.5 mg/mL of WGA PVT SPA beads in complete buffer. Assay plates were then sealed and incubated at room temperature with gentle agitation for 30 minutes. Next, 40 μL/well of 1 nM of [^35S]-GTPγS (PerkinElmer, cat #NEG030X^250UC, Waltham, MA) in basic assay buffer (20 mM HEPES, 10 mM MgCl2, 100 mM NaCl, and 1 mM EDTA, pH7.4) was added to the assay plates to yield a final concentration of […] and the plates were further incubated for 40 minutes at room temperature with gentle agitation. The assay was terminated by centrifugation of the plates at 1000 rpm for 3 minutes using an Eppendorf 5810R centrifuge (Eppendorf, Hamburg, Germany) and G protein bound radioactivity was quantitated using a MicroBeta2 microplate scintillation counter (PerkinElmer, Waltham, MA). As G protein bound radioactivity directly correlates to receptor activation and coupling to the G protein, this assay is a measure of S1P5 agonism.

T1 sequence (Q9H228 whole entry): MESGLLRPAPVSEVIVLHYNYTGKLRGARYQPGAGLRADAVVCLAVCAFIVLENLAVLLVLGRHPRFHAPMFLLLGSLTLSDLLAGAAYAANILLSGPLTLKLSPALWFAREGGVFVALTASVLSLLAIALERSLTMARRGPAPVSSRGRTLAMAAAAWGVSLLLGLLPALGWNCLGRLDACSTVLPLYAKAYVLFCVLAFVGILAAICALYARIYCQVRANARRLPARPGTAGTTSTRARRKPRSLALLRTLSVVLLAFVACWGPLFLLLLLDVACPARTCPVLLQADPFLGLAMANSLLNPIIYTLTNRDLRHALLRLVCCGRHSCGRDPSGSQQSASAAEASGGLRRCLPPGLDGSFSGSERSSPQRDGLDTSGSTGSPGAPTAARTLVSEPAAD

Row | SMILES | EC50
1 | Cc1cc(C2CN(c3ccccc3)C2)cc(C)c1CN1CC(C)(O)C1 [Compound 43, 1-(2,6-dimethyl-4-(1-phenylazetidin-3-yl)benzyl)-3-methylazetidin-3-ol] | 1000 to 10000 nM
2 | Cc1cc(C2CN(c3c(Cl)cccc3Cl)C2)cc(C)c1CN1CC(O)(C(F)(F)F)C1 [Compound 41, 1-(4-(1-(2,6-dichlorophenyl)azetidin-3-yl)-2,6-dimethylbenzyl)-3-(trifluoromethyl) azetidin-3-ol] | 100 to 1000 nM
3 | Cc1cc2c(cc1OCc1c(Cl)cccc1Cl)CCC2N1CC(C)(O)C1 (single isomer, unassigned) [Compound 24b, 1-[5-[(2,6-dichlorophenyl)methoxy]-6-methyl-indan-1-yl]-3-methyl-azetidin-3-ol] | 1 to 10 nM
4 | Cc1c(-c2ccc(C3CC3)c(Cl)c2)ccc2c1CCC2N1CC(C)(O)C1 (single isomer, unassigned) [Compound 16a, 1-[5-(3-chloro-4-cyclopropyl-phenyl)-4-methyl-indan-1-yl]-3-methyl-azetidin-3-ol] | 1 to 10 nM
5 | Cc1c(OCc2c(Cl)cccc2Cl)ccc2c1CCC2NCC(C)(C)O (single isomer, unassigned) [Compound 20a, 1-((5-((2,6-dichlorobenzyl)oxy)-4-methyl-2,3-dihydro-1H-inden-1-yl)amino)-2-methylpropan-2-ol] | 10 to 100 nM
6 | CC1(O)CN(C2CCc3cc(C#Cc4ccccc4F)ccc32)C1 (single isomer, unassigned) [Compound 1a, 1-[5-[2-(2-fluorophenyl)ethynyl]indan-1-yl]-3-methyl-azetidin-3-ol] | 10 to 100 nM
7 | Cc1cc2c(cc1CCc1c(Cl)cccc1Cl)CCC2N1CC(C)(O)C1 (single isomer, unassigned) [Compound 23b, 1-[5-[2-(2,6-dichlorophenyl)ethyl]-6-methyl-indan-1-yl]-3-methyl-azetidin-3-ol] | 10 to 100 nM
8 | Cc1cc(-c2ccc(C3CC3)c(Cl)c2)cc2c1C(N1CC(C)(O)C1)CC2 (single isomer, unassigned) [Compound 10b, 1-[5-(3-chloro-4-cyclopropyl-phenyl)-7-methyl-indan-1-yl]-3-methyl-azetidin-3-ol] | 1 to 10 nM
9 | CC(C)c1cc(C2CN(c3c(Cl)cccc3Cl)C2)cc(C(C)C)c1CN1CC(C)(O)C1 [Compound 53, 1-(4-(1-(2,6-dichlorophenyl)azetidin-3-yl)-2,6-diisopropylbenzyl)-3-methylazetidin-3-ol] | 1000 to 10000 nM
10 | CC1(O)CN(Cc2ccc(C3CN(c4c(Cl)cccc4Cl)C3)c3ccccc23)C1 [Compound 55, 1-((4-(1-(2,6-dichlorophenyl)azetidin-3-yl)naphthalen-1-yl)methyl)-3-methylazetidin-3-ol] | 10 to 100 nM
11 | Cc1c(-c2ccc(C3CC3)c(Cl)c2)cc2c(c1C)C(N1CC(C)(O)C1)CC2 (single isomer, unassigned) [Compound 27b, 1-(5-(3-chloro-4-cyclopropylphenyl)-6,7-dimethyl-2,3-dihydro-1H-inden-1-yl)-3-methylazetidin-3-ol] | 10 to 100 nM
12 | CC1(O)CN(C2CCc3cc(-c4ccc(C5CC5)c(F)c4)ccc32)C1 (single isomer, unassigned) [Compound 4a, 1-(5-(4-cyclopropyl-3-fluorophenyl)-2,3-dihydro-1H-inden-1-yl)-3-methyl azetidin-3-ol] | 10 to 100 nM
13 | CC1(O)CN(Cc2ccc(N3CC(c4c(Cl)cccc4Cl)C3)cc2)C1 [Compound 33, 1-(4-(3-(2,6-dichlorophenyl)azetidin-1-yl)benzyl)-3-methylazetidin-3-ol] | 100 to 1000 nM
14 | Cc1cc(OCc2c(Cl)cccc2Cl)cc2c1C(N1CC(C)(O)C1)CC2 (single isomer, unassigned) [Compound 15a, 1-[5-[(2,6-dichlorophenyl)methoxy]-7-methyl-indan-1-yl]-3-methyl-azetidin-3-ol] | 1 to 10 nM
15 | Cc1cc2c(cc1C#Cc1cccc(F)c1)CCC2N1CC(C)(O)C1 (single isomer, unassigned) [Compound 22b, 1-[5-[2-(3-fluorophenyl)ethynyl]-6-methyl-indan-1-yl]-3-methyl-azetidin-3-ol] | 10 to 100 nM
16 | Cc1cc2c(c(C)c1-c1ccc(C3CC3)c(Cl)c1)CCC2N1CC(C)(O)C1 (single isomer, unassigned) [Compound 25a, 1-(5-(3-chloro-4-cyclopropylphenyl)-4,6-dimethyl-2,3-dihydro-1H-inden-1-yl)-3-methylazetidin-3-ol] | 1 to 10 nM

Now from value to compound:

Row | EC50 | SMILES
17 | 1 to 10 nM | Cc1cc2c(cc1-c1ccc(C3CC3)c(Cl)c1)CCC2N1CC(C)(O)C1 (single isomer, unassigned) [Compound 21b, 1-[5-(3-chloro-4-cyclopropyl-phenyl)-6-methyl-indan-1-yl]-3-methyl-azetidin-3-ol]
18 | 1 to 10 nM | Cc1c(-c2ccc(C3CC3)c(Cl)c2)ccc2c1CCC2N1CC(C)(O)C1 (single isomer, unassigned) [Compound 16b, 1-[5-(3-chloro-4-cyclopropyl-phenyl)-4-methyl-indan-1-yl]-3-methyl-azetidin-3-ol]
19 | 10 to 100 nM | Cc1c(C#Cc2cccc(F)c2)ccc2c1CCC2N1CC(C)(O)C1 (single isomer, unassigned) [Compound 17b, 1-[5-[2-(3-fluorophenyl)ethynyl]-4-methyl-indan-1-yl]-3-methyl-azetidin-3-ol]
20 | 1 to 10 nM | Cc1cc(-c2ccc(C3CC3)c(Cl)c2)c(C)c2c1C(N1CC(C)(O)C1)CC2 (single isomer, unassigned) [Compound 26a, 1-[5-(3-chloro-4-cyclopropyl-phenyl)-4,7-dimethyl-indan-1-yl]-3-methyl-azetidin-3-ol]
21 | 100 to 1000 nM | Cc1cc(C2CN(c3c(Cl)cccc3Cl)C2)cc(C)c1CN1CCC(C)(O)CC1 [Compound 34, 1-(4-(1-(2,6-dichlorophenyl)azetidin-3-yl)-2,6-dimethylbenzyl)-4-methylpiperidin-4-ol]
22 | 100 to 1000 nM | CC1(O)CN(Cc2ccc(N3CC(c4c(Cl)cccc4Cl)C3)nc2)C1 [Compound 64, 1-((6-(3-(2,6-dichlorophenyl)azetidin-1-yl)pyridin-3-yl)methyl)-3-methylazetidin-3-ol]
23 | 1 to 10 nM | CC1(O)CN(C2CCc3cc(OCc4c(Cl)cccc4Cl)ccc32)C1 (single isomer, unassigned) [Compound 3a, 1-(5-((2,6-dichlorobenzyl)oxy)-2,3-dihydro-1H-inden-1-yl)-3-methylazetidin-3-ol]
24 | 100 to 1000 nM | CC1(O)CN(Cc2ccc(C3CN(c4c(Cl)cccc4Cl)C3)cc2F)C1 [Compound 61, 1-(4-(1-(2,6-dichlorophenyl)azetidin-3-yl)-2-fluorobenzyl)-3-methylazetidin-3-ol]
25 | 100 to 1000 nM | CC1(O)CCN(C2CCc3cc(-c4ccc(C5CC5)c(Cl)c4)ccc32)C1 (stereo not drawn) [Compound 7, 1-(5-(3-chloro-4-cyclopropylphenyl)-2,3-dihydro-1H-inden-1-yl)-3-methylpyrrolidin-3-ol]
26 | 100 to 1000 nM | CCC1(O)CN(Cc2c(C)cc(C3CN(c4c(Cl)cccc4Cl)C3)cc2C)C1 [Compound 38, 1-(4-(1-(2,6-dichlorophenyl)azetidin-3-yl)-2,6-dimethylbenzyl)-3-ethylazetidin-3-ol]
27 | 10 to 100 nM | CC1(O)CN(C2CCc3cc(OCc4c(Cl)cccc4Cl)ccc32)C1 (single isomer, unassigned) [Compound 3b, 1-(5-((2,6-dichlorobenzyl)oxy)-2,3-dihydro-1H-inden-1-yl)-3-methylazetidin-3-ol]
28 | 1000 to 10000 nM | Cc1cc(C2CN(c3ccccc3F)C2)cc(C)c1CN1CC(C)(O)C1 [Compound 44, 1-(4-(1-(2-fluorophenyl)azetidin-3-yl)-2,6-dimethylbenzyl)-3-methylazetidin-3-ol]
29 | 10 to 100 nM | Cc1cc2c(cc1CCc1c(Cl)cccc1Cl)CCC2N1CC(C)(O)C1 (single isomer, unassigned) [Compound 23a, 1-[5-[2-(2,6-dichlorophenyl)ethyl]-6-methyl-indan-1-yl]-3-methyl-azetidin-3-ol]
30 | 100 to 1000 nM | CC1(O)CN(Cc2ccc(C#Cc3c(F)cccc3F)cc2)C1 [Compound 28, 1-(4-((2,6-difluoro-phenyl)ethynyl)benzyl)-3-methylazetidin-3-ol]

Reference: patent US20260022094A1, “Compounds for the Treatment of Neurodegenerative Diseases” (Celgene Corporation, priority 2022, published 2026)
